Reference: patent US8796457B2, “Compound useful for the treatment of degenerative and inflammatory diseases” (Galapagos NV, priority 2009, dated 2014)

Columns and labels:
[1] = system: collagen induced arthritis; experiment: Rat collagen induced arthritis (CIA) model; type: in vivo
Protocol: Completed Freund's adjuvant (CFA) and incomplete Freund's adjuvant (IFA) were purchased from Difco. Bovine collagen type II (CII), lipopolysaccharide (LPS), and Enbrel were obtained from Chondrex (Isle d'Abeau, France); Sigma (P4252, L'Isle d'Abeau, France), Whyett (25 mg injectable syringe, France) Acros Organics (Palo Alto, Calif.), respectively. All other reagents used were of reagent grade and all solvents were of analytical grade.
Dark Agouti rats (male, 7-8 weeks old) are obtained from Harlan Laboratories (Maison-Alfort, France). DBA/1J mice (male, 7 weeks old) were obtained from Centre d'Elevage et de Reproduction JANVIER (CERJ) (Laval, France). Rats and mice were kept on a 12 hours light/dark cycle (0700-1900). The temperature was maintained at 22° C., and food and water were provided ad libitum.
One day before the experiment, CII solution (2 mg/mL) was prepared with 0.05 M acetic acid and stored at 4° C. Just before the immunization, equal volumes of adjuvant (IFA) and CII were mixed by a homogenizer in a pre-cooled glass bottle in an ice water bath. Extra adjuvant and prolonged homogenization might be required if an emulsion is not formed.
Rat: 0.2 mL of the emulsion is injected intradermally at the base of the tail of each rat on day 1, a second booster intradermal injection (CII solution at 2 mg/mL in CFA 0.1 mL saline) is performed on day 9. This immunization method is modified from published methods (Sims N A et al., (2004) Targeting osteoclasts with zoledronic acid prevents bone destruction in collagen-induced arthritis, Arthritis Rheum. 50 2338-2346; Jou et al., 2005).
The therapeutic effects of the test compounds were tested in the rat or mouse CIA model. Animals were randomly divided into equal groups and each group contained 10 animals. All rats are immunized on day 1 and boosted on day 9. All mice were immunized on day 1 and boosted on day 21. Therapeutic dosing lasted from day 16 to day 30. The negative control group was treated with vehicle (MC 0.5%) and the positive control group with Enbrel (10 mg/kg, 3× week., s.c.). A compound of interest was typically tested at 3 doses, e.g. 3, 10, 30 mg/kg, p.o.
Arthritis was scored according the method of Khachigian 2006, Lin et al 2007 and Nishida et al. 2004). […]
AUC of clinical score (AUC score): The area under the curve (AUC) from day 1 to day 14 was calculated for each individual rat. The AUC of each animal was divided by the average AUC obtained for the vehicle in the study from which the data on that animal was obtained and multiplied by 100 (i.e. the AUC was expressed as a percentage of the average vehicle AUC per study).
Clinical score increase from day 1 to day 14 (End point score): The clinical score difference for each animal was divided by the average clinical score difference obtained for the vehicle in the study from which the data on that animal was obtained and multiplied by 100 (i.e. the difference was expressed as a percentage of the average clinical score difference for the vehicle per study).
Post-mortem, a Larsen' score was derived for both hind paws of all rats by at least 2 scientists. The average of these scores was calculated to obtain one Larsen' score per rat. […]

[2] = system: HeLa cells, STAT signalling; experiment: JAK-STAT signalling assay (pSTAT1(2)-luciferase reporter, OSM trigger); type: cell-based; details: human OSM 33 ng/mL
Protocol: HeLa cells were maintained in Dulbecco's Modified Eagle's Medium (DMEM) containing 10% heat inactivated fetal calf serum, 100 U/mL penicillin and 100 μg/mL streptomycin. HeLa cells were used at 70% confluence for transfection. 20,000 cells in 87 μL cell culture medium were transiently transfected with 40 ng pSTAT1(2)-luciferase reporter (Panomics), 8 ng of LacZ reporter as internal control reporter and 52 ng of pBSK using 0.32 μL Jet-PEI (Polyplus) as transfection reagent per well in 96-well plate format. After overnight incubation at 37° C., 10% CO2, transfection medium was removed. 75 μL of DMEM+1.5% inactivated fetal calf serum was added. 15 μL of compound at 6.7× concentration was added for 60 min and then 10 μL of human OSM (Peprotech) at 33 ng/mL final concentration. […]
40 μL of cell lysate was used to read β-galactosidase activity by adding 180 μL βGal solution (30 μl ONPG 4 mg/mL+150 μL β-Galactosidase buffer (0.06 M Na2HPO4, 0.04 M NaH2PO4, 1 mM MgCl2)) for 20 min. The reaction was stopped by addition of 50 μL Na2CO3 1 M. Absorbance was read at 405 nm
Luciferase activity was measured using 40 μL cell lysate plus 40 μl of Steadylite® as described by the manufacturer (Perkin Elmer), on the Envision (Perkin Elmer). […]

[3] = biological target: JAK1 (Homo sapiens (Human), UniProt P23458); experiment: JAK1 Ki determination assay (Ulight-JAK-1 peptide); type: biochemical; details: Lineweaver-Burk; Ulight-JAK-1 (Tyr1023) peptide, alternative protocol
Chain of JAK1 (P23458 866-1154): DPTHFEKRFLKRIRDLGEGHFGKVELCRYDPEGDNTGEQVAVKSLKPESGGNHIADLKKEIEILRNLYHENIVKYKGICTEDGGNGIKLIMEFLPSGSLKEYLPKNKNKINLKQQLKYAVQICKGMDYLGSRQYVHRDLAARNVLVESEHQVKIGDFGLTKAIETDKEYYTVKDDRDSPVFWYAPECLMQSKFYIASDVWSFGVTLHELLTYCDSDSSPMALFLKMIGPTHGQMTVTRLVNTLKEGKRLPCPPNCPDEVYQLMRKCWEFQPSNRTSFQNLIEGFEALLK
Protocol: Alternatively, for the determination of Ki, different amounts of inhibitor were mixed with the enzyme and the enzymatic reaction was followed as a function of ATP concentration. The Ki was determined by means of double reciprocal plotting of Km vs compound concentration (Lineweaver-Burk plot). 1 ng of JAK1 (Invitrogen, PV4774) was used in the assay. The substrate was 50 nM Ulight-JAK-1 ([MUT]) Peptide (Perkin Elmer, TRF0121) The reaction was performed in 25 mM MOPS pH 6.8, 0.01%, 2 mM DTT, 5 mM MgCl2 Brij-35 with varying concentrations of ATP and compound. Phosphorylated substrate was measured using an Eu-labeled anti-phosphotyrosine antibody PT66 (Perkin Elmer, AD0068). Readout was performed on the envision (Perkin Elmer) with excitation at 320 nm and emission followed at 615 nm and 665 nm.

CC1(C)CN(C(=O)c2ccc(-c3cccc4nc(NC(=O)C5CC5)nn34)cc2)C1 [Compound 1, Cyclopropanecarboxylic acid{5-[4-(3,3-dimethyl-azetidine-1-carbonyl)-phenyl]-[1,2,4]triazolo[1,5-a]pyridin-2-yl}-amide]
dose from which significant improvement of paw swelling was seen ([1]; rat CIA): ≥ 1 mg/kg
dose from which significant improvement of the AUC of the clinical score was seen ([1]; rat CIA): ≥ 10 mg/kg
dose from which significant improvement of the Larsen' score was seen ([1]; rat CIA): ≥ 30 mg/kg
dose from which significant improvement of the endpoint clinical score was seen ([1]; rat CIA): ≥ 1 mg/kg
efficacy in the rat CIA study ([1]; rat, 30, 10, 3, and 1 mg/kg): efficacious in all readouts
EC50 [2]: 539 ± 130 nM
Ki [3]: 5.6 nM
